According to patent publication US10174037B2, “Dihydropyrazolopyrimidinone compounds as PDE2 inhibitors” (Merck Sharp & Dohme Corp., priority 2015, dated 2019):

Columns and labels:
Rhesus PDE2A3 = Rhesus PDE2A3 (Macaca mulatta, UniProt B3VTJ2); assay: PDE2 fluorescence polarization (IMAP FP) assay, rhesus PDE2A3; assay type: biochemical, rhesus macaque; conditions: Lab B, read-out: Rhesus PDE2 Ki (nM) Lab B
human PDE2A1 = human PDE2A1 (Homo sapiens (Human), UniProt O00408); assay: PDE selectivity IMAP FP assay, human PDE2A1; assay type: biochemical; conditions: Human PDE2; Lab B; read-out: Human PDE2 Ki (nM) Lab B
How it was run: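 Compound titrations run against PDE2 in Tris HCl pH 7.2 buffer with MgCl2 and DTT for 60 min at room temperature, using 50 nM FAM-cAMP plus 1000 nM cGMP and enzyme giving 20% conversion.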

human PDE2A1, sequence (O00408 other isoform, or with tags, fused parts or gaps): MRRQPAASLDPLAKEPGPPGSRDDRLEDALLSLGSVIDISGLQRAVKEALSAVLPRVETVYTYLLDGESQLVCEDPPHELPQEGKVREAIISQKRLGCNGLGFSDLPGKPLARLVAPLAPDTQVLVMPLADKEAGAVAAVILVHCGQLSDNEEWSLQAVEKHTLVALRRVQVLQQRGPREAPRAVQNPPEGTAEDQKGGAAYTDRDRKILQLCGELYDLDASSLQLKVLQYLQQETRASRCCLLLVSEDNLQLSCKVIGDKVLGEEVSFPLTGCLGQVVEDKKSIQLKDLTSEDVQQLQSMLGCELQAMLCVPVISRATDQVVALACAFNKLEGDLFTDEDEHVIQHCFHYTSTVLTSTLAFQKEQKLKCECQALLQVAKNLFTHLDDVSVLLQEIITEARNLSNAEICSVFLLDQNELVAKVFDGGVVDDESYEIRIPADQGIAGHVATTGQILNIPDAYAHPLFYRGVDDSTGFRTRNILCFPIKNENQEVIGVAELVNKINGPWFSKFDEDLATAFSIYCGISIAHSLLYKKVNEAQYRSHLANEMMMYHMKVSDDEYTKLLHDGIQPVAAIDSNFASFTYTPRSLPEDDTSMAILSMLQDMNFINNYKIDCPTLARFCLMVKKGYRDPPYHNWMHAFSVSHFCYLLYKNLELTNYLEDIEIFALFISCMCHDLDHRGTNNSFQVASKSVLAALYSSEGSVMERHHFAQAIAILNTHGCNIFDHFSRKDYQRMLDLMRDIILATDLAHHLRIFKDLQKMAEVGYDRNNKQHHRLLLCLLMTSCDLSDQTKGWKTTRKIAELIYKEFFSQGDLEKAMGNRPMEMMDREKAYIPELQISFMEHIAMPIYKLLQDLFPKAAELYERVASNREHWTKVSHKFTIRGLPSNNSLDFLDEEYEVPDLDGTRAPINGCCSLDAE
Rhesus PDE2A3, sequence (B3VTJ2 1-941): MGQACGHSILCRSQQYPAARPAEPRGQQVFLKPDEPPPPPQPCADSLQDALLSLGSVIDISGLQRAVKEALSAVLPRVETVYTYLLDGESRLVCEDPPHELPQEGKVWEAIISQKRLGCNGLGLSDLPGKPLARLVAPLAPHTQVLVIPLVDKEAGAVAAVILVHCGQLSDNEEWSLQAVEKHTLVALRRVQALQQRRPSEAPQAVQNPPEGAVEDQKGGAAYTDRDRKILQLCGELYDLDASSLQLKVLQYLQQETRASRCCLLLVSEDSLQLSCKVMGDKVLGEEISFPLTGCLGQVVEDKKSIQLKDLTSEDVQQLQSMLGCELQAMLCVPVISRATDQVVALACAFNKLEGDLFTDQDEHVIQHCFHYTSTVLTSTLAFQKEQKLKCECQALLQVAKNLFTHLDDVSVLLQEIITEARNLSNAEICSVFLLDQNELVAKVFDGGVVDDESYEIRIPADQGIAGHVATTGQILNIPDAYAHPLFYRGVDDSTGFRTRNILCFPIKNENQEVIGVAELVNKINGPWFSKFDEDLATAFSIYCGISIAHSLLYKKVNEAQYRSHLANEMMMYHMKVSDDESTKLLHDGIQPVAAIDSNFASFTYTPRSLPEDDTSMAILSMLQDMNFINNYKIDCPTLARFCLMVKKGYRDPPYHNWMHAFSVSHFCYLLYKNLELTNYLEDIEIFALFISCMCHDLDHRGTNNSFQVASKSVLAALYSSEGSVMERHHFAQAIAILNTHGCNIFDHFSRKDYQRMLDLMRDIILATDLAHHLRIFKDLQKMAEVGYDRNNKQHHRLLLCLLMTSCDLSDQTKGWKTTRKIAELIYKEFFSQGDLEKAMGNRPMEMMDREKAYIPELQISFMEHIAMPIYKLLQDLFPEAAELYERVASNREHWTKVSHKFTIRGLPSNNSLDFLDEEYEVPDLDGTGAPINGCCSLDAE

Row | Compound | Ki (Rhesus PDE2A3) [nM] | Ki (human PDE2A1) [nM]
1 | CC(c1ccc(C(F)(F)F)c(F)c1)n1nc(CO)c2c(=O)[nH]c(N(C)C)nc21 (single isomer, unassigned) [Example 68, (R)- or (S)-6-(Dimethylamino)-1-(1-(3-fluoro-4-(trifluoromethyl)phenyl)ethyl)-3-(hydroxymethyl)-1H-pyrazolo[3,4-d]pyrimidin-4(5H)-one] | 11 | 7.1
2 | CC(c1ccc(C(F)(F)F)c(F)c1)n1nc(CO)c2c(=O)[nH]c(N(C)C)nc21 (single isomer, unassigned) [Example 69, (S)- or (R)-6-(Dimethylamino)-1-(1-(3-fluoro-4-(trifluoromethyl)phenyl)ethyl)-3-(hydroxymethyl)-1H-pyrazolo[3,4-d]pyrimidin-4(5H)-one] | 0.27 | 0.27
3 | CN(C)c1nc2c(c(CO)nn2C(c2ccc(C(F)(F)F)cc2)C2CC2)c(=O)[nH]1 (single isomer, unassigned) [Example 74, (R)- or (S)-1-(Cyclopropyl(4-(trifluoromethyl)phenyl)methyl)-6-(dimethylamino)-3-(hydroxymethyl)-1H-pyrazolo[3,4-d]pyrimidin-4(5H)-one] | 0.15 | 0.17
4 | CN(C)c1nc2c(c(CO)nn2C(c2ccc(C(F)(F)F)cc2)C2CC2)c(=O)[nH]1 (single isomer, unassigned) [Example 75, (S)- or (R)-1-(Cyclopropyl(4-(trifluoromethyl)phenyl)methyl)-6-(dimethylamino)-3-(hydroxymethyl)-1H-pyrazolo[3,4-d]pyrimidin-4(5H)-one] | 0.79 | 1.1
5 | CC(C)c1ccc(C(C(C)C)n2nc(CO)c3c(=O)[nH]c(N(C)C)nc32)cc1 (single isomer, unassigned) [Example 78, (R)- or (S)-6-(Dimethylamino)-3-(hydroxymethyl)-1-(1-(4-isopropylphenyl)-2-methylpropyl)-1H-pyrazolo[3,4-d]pyrimidin-4(5H)-one] | 0.14 | 0.11
6 | CN(C)c1nc2c(c(CO)nn2C(c2ccc(CC(F)(F)F)cc2)C2CC2)c(=O)[nH]1 (single isomer, unassigned) [Example 86, (R)- or (S)-1-(Cyclopropyl(4-(2,2,2-trifluoroethyl)phenyl)methyl)-6-(dimethylamino)-3-(hydroxymethyl)-1H-pyrazolo[3,4-d]pyrimidin-4(5H)-one] | 0.91 | 0.57
7 | CN(C)c1nc2c(c(CO)nn2C(c2ccc(CC(F)(F)F)cc2)C2CC2)c(=O)[nH]1 (single isomer, unassigned) [Example 87, (S)- or (R)-1-(Cyclopropyl(4-(2,2,2-trifluoroethyl)phenyl)methyl)-6-(dimethylainino)-3-(hydroxymethyl)-1H-pyrazolo[3,4-d]pyrimidin-4(5H)-one] | 0.4 | 0.38
8 | CC(C)C(c1ccc(C(F)F)cc1)n1nc(CO)c2c(=O)[nH]c(N(C)C)nc21 (single isomer, unassigned) [Example 90, (R)- or (S)-1-(1-(4-(Difluoromethyl)phenyl)-2-methylpropyl)-6-(dimethylamino)-3-(hydroxymethyl)-1H-pyrazolo[3,4-d]pyrimidin-4(5H)-one] | 2.3 | 1.1
9 | CC(C)C(c1ccc(C(F)F)cc1)n1nc(CO)c2c(=O)[nH]c(N(C)C)nc21 (single isomer, unassigned) [Example 91, (S)- or (R)-1-(1-(4-(Difluoromethyl)phenyl)-2-methylpropyl)-6-(dimethylamino)-3-(hydroxymethyl)-1H-pyrazolo[3,4-d]pyrimidin-4(5H)-one] | 0.18 | 0.18
10 | CCC(c1ccc(C(F)F)cc1)n1nc(CO)c2c(=O)[nH]c(N(C)C)nc21 (single isomer, unassigned) [Example 93, (S)- or (R)-1-(1-(4-(Difluoromethyl)phenyl)propyl)-6-(dimethylamino)-3-(hydroxymethyl)-1H-pyrazolo[3,4-d]pyrimidin-4(5H)-one] | 0.55 | 0.42
11 | CN(C)c1nc2c(c(CO)nn2C(c2ccc(CC(F)(F)F)c(F)c2)C2CC2)c(=O)[nH]1 (single isomer, unassigned) [Example 94, (R)- or (S)-1-(Cyclopropyl(3-fluoro-4-(2,2,2-trifluoroethyl)phenyl)methyl)-6-(dimethylamino)-3-(hydroxymethyl)-1H-pyrazolo[3,4-d]pyrimidin-4(5H)-one] | 0.15 | 0.14
12 | CN(C)c1nc2c(c(CO)nn2C(c2ccc(CC(F)(F)F)c(F)c2)C2CC2)c(=O)[nH]1 (single isomer, unassigned) [Example 95, (S)- or (R)-1-(Cyclopropyl(3-fluoro-4-(2,2,2-trifluoroethyl)phenyl)methyl)-6-(dimethylamino)-3-(hydroxymethyl)-1H-pyrazolo[3,4-d]pyrimidin-4(5H)-one] | 0.44 | 0.39
13 | CC(c1ccc(CC(F)(F)F)c(F)c1)n1nc(CO)c2c(=O)[nH]c(N(C)C)nc21 (single isomer, unassigned) [Example 101, (S)- or (R)-6-(Dimethylamino)-1-(1-(3-fluoro-4-(2,2,2-trifluoroethyl)phenyl)ethyl)-3-(hydroxymethyl)-1H-pyrazolo[3,4-d]pyrimidin-4(5H)-one] | 0.35 | 0.29

Further compounds by falling Ki (Rhesus PDE2A3), results first:

Row | Ki (Rhesus PDE2A3) [nM] | Ki (human PDE2A1) [nM] | Compound
14 | 1.1 | 0.86 | CC(c1ccc(C(F)F)cc1)n1nc(CO)c2c(=O)[nH]c(N(C)C)nc21 (single isomer, unassigned) [Example 83, (S)- or (R)-1-(1-(4-(Difluoromethyl)phenyl)ethyl)-6-(dimethylamino)-3-(hydroxymethyl)-1H-pyrazolo[3,4-d]pyrimidin-4(5H)-one]
15 | 1.1 | 0.88 | CC(c1ccc(CC(F)(F)F)c(F)c1)n1nc(CO)c2c(=O)[nH]c(N(C)C)nc21 (single isomer, unassigned) [Example 100, (R)- or (S)-6-(Dimethylamino)-1-(1-(3-fluoro-4-(2,2,2-trifluoroethyl)phenyl)ethyl)-3-(hydroxymethyl)-1H-pyrazolo[3,4-d]pyrimidin-4(5H)-one]
16 | 1 | 0.68 | CC(c1ccc(OC(F)(F)F)c(F)c1)n1nc(CO)c2c(=O)[nH]c(N(C)C)nc21 (single isomer, unassigned) [Example 84, (R)- or (S)-6-(Dimethylamino)-1-(1-(3-fluoro-4-(trifluoromethoxy)phenyl)ethyl)-3-(hydroxymethyl)-1H-pyrazolo[3,4-d]pyrimidin-4(5H)-one]
17 | 0.95 | 0.75 | CC(c1ccc(CC(F)(F)F)cc1)n1nc(CO)c2c(=O)[nH]c(N(C)C)nc21 (single isomer, unassigned) [Example 71, (S)- or (R)-6-(Dimethylamino)-3-(hydroxymethyl)-1-(1-(4-(2,2,2-trifluoroethyl)phenyl)ethyl)-1H-pyrazolo[3,4-d]pyrimidin-4(5H)-one]
18 | 0.3 | 0.24 | CC(c1ccc(OC(F)(F)F)c(F)c1)n1nc(CO)c2c(=O)[nH]c(N(C)C)nc21 (single isomer, unassigned) [Example 85, (S)- or (R)-6-(Dimethylamino)-1-(1-(3-fluoro-4-(trifluoromethoxy)phenyl)ethyl)-3-(hydroxymethyl)-1H-pyrazolo[3,4-d]pyrimidin-4(5H)-one]
19 | 0.25 | 0.16 | CCC(c1ccc(C(F)(F)F)cc1)n1nc(CO)c2c(=O)[nH]c(N(C)C)nc21 (single isomer, unassigned) [Example 73, (S)- or (R)-6-(Dimethylamino)-3-(hydroxymethyl)-1-(1-(4-(trifluoromethyl)phenyl)propyl)-1H-pyrazolo[3,4-d]pyrimidin-4(5H)-one]
20 | 0.25 | 0.29 | CC(c1ccc(C(F)(F)F)cc1F)n1nc(CO)c2c(=O)[nH]c(N(C)C)nc21 (single isomer, unassigned) [Example 81, (S)- or (R)-6-(Dimethylamino)-1-(1-(2-fluoro-4-(trifluorornethyl)phenyl)ethyl)-3-(hyrdroxymethyl)-1H-pyrazolo[3,4-d]pyrimidin-4(5H)-one]
21 | 0.21 | 0.22 | CC(C)c1ccc(C(C2CC2)n2nc(CO)c3c(=O)[nH]c(N(C)C)nc32)cc1 (single isomer, unassigned) [Example 76, (R)- or (S)-1-(Cyclopropyl(4-isopropylphenyl)methyl)-6-(dimethylamino)-3-(hydroxymethyl)-1H-pyrazolo[3,4-d]pyrimidin-4(5H)-one]
22 | 0.11 | 0.09 | CCC(c1ccc(CC(F)(F)F)c(F)c1)n1nc(CO)c2c(=O)[nH]c(N(C)C)nc21 (single isomer, unassigned) [Example 97, (S)- or (R)-6-(Dimethylamino)-1-(1-(3-fluoro-4-(2,2,2-trifluoroethyl)phenyl)propyl)-3-(hydroxymethyl)-1H-pyrazolo[3,4-d]pyrimidin-4(5H)-one]
23 | 0.084 | 0.069 | CC(C)c1ccc(C(C2CC2)n2nc(CO)c3c(=O)[nH]c(N(C)C)nc32)cc1 (single isomer, unassigned) [Example 77, (S)- or (R)-1-(Cyclopropyl(4-isopropxlphenyl)methyl)-6-(dimethylamino)-3-(hydroxymethyl)-1H-pyrazolo[3,4-d]pyrimidin-4(5H)-one]
24 | 0.054 | 0.044 | CC(C)c1ccc(C(C(C)C)n2nc(CO)c3c(=O)[nH]c(N(C)C)nc32)cc1 (single isomer, unassigned) [Example 79, (S)- or (R)-6-(Dimethylamino)-3-(hydroxymethyl)-1-(1-(4-isopropylphenyl)-2-methylpropyl)-1H-pyrazolo[3,4-d]pyrimidin-4(5H)-one]
